These results are taken from patent publication US10577366B2, “Crystalline forms of a compound that inhibits bromodomain” (Plexxikon Inc., priority 2017, dated 2020).

“Also recorded” adds a separate entry of the source.

Format in all cases: physicochemical
A short description of series [1]: Solid form conversion on heating (XRPD / DSC). As for the experimental part:
For XRPD analyses provided herein, a PANalytical Empyrean X-ray powder diffract meter was used, and the XRPD parameters used are summarized in Table 1.
DSC was performed using a TA Q200/Q2000 DSC from TA Instruments. TGA data were collected using a TA Q500/Q5000 TGA from TA Instruments. […]
Compound I Form C was prepared via anti-solvent addition in acetone/n-heptane at RT. […] (peak temperature) followed by two endotherms at 232.8° C. and 265.7° C. (onset temperature). […] It is also contemplated that Form C may be an anhydrate based on the characterization results. […]

A short description of series [2]: Slurry turnover between forms in ACN at various temperatures. The note with it: for Solid form after slurry turnover (XRPD): 1:1 mass mixture with Form A in ACN. On the procedure: The conversion relationship between anhydrous Compound I Form A and Compound I Form C was investigated via slurry turnover at various temperatures (RT (25±3° C.) or 50° C.) as follows.
About 5 mg of Compound I Form A was added to 1.0 mL of ACN, and the suspension was stirred at 50° C. for 2 hours to reach equilibrium. The suspension was filtered into a vial, which included 5 mg of Compound I Form A and Compound I Form C (mass ratio of 1:1). The mixture was stirred at a desired temperature for 4 days, and the solids were then analyzed by XRPD and DSC.
The conversion relationship between anhydrate Compound I Form A and Compound I Form E was investigated via slurry turnover at various temperatures (RT (25±3° C.) or 50° C.) and water activities as follows.
For various temperatures: About 5 mg of Compound I Form A was added to 1.0 mL of ACN, and the suspension was stirred at 50° C. for 2 hours to reach equilibrium. The suspension was filtered into a vial, which included 2 mg of Compound I Form A and Compound I Form E (mass ratio of 1:1). The mixture was stirred at a desired temperature for 4 days, and the solids were then analyzed by XRPD.

Series [3] is described as follows: Slurry turnover between Form A and E at various water activities. Particulars: 21 days, XRPD. As for the experimental part:
For various water activities: About 10 mg of Compound I Form A was added to 1.0 mL EtOH/H2O with different aw (Table 12), and the suspension was stirred at RT for 1 hour to reach equilibrium. The suspension was filtered into a vial, which included 2 mg of Compound I Form A and Compound I Form E (mass ratio of 1:1). The mixture was stirred at the desired aw for 21 days, and the solids were then analyzed by XRPD.

Series [4] is described as follows: Dynamic vapor sorption (DVS) isotherm, solid form stability as a function of humidity. Particulars: for Water uptake: DVS at 25° C., up to 80% RH, solids pre-dried at 0% RH; for Form change after DVS test according to XRPD: after DVS at 25° C., 0% RH to 95% RH. On the procedure:
DVS was measured via a SMS (Surface Measurement Systems) DVS Intrinsic. The relative humidity at 25° C. were calibrated against deliquescence point of LiCl, Mg(NO3)2 and KCl.
DVS isotherm plot was collected at 25° C. to investigate the solid form stability as a function of humidity for Form A. Solids were pre-dried at 0% RH to remove surface solvent or water before DVS.
DVS isotherm plot was collected at 25° C. to investigate the solid form stability as a function of humidity for Form C. Solids were pre-dried at 0% RH to remove surface solvent or water before DVS. Water uptake of 0.6% was observed up to 80% RH (FIG. 9).

The mark [5] stands for this setting: stirred 4 days at RT (25±3° C.).

As for `Cc1noc(C)c1-c1cnc2c(-c3ccc(C(=O)O)cc3)cn(C(C)(c3ccccn3)c3ccccn3)c2c1` [Form B, 4-(1-(1,1-di(pyridin-2-yl)ethyl)-6-(3,5-dimethylisoxazol-4-yl)-1H-pyrrolo[3,2-b]pyridin-3-yl)benzoic acid], the “Solid form after heating (XRPD)” value in series [1] (after heating to 110° C.) is “converted to Form A”.
Consider `Cc1noc(C)c1-c1cnc2c(-c3ccc(C(=O)O)cc3)cn(C(C)(c3ccccn3)c3ccccn3)c2c1` [Form E, 4-(1-(1,1-di(pyridin-2-yl)ethyl)-6-(3,5-dimethylisoxazol-4-yl)-1H-pyrrolo[3,2-b]pyridin-3-yl)benzoic acid], for which the “Solid form after heating (XRPD)” value in series [1] (after heating to 150° C.) is given as “converted to Form A”. Besides, the “Solid form after slurry turnover (XRPD)” value in series [2] (stirred 4 days at 50° C.) and in series [2] (setting [5]) was “converted to Form A” in each case. In addition, the “Final Form” value in series [3] (Aw 0.298 (EtOH/H2O 952:48 v/v)), in series [3] (Aw 0.605 (EtOH/H2O 855:145 v/v)) and in series [3] (Aw 0.900 (EtOH/H2O 450:550 v/v)) was “converted to Form A” throughout.
On to `Cc1noc(C)c1-c1cnc2c(-c3ccc(C(=O)O)cc3)cn(C(C)(c3ccccn3)c3ccccn3)c2c1` [Form C, 4-(1-(1,1-di(pyridin-2-yl)ethyl)-6-(3,5-dimethylisoxazol-4-yl)-1H-pyrrolo[3,2-b]pyridin-3-yl)benzoic acid], for which, in series [4], the Water uptake stood at 0.6% and the “Form change after DVS test according to XRPD” value is on record as “Phase transition of Form C to Form A”. Further, in series [1] (after heating above the exothermic peak (174.5° C., peak temperature)), the “Solid form after heating (XRPD/DSC)” value is given as “completely converted to Form A; also recorded: convert to Form A”. In addition, in series [2] (stirred 4 days at 50° C.), the “Solid form after slurry turnover (XRPD)” value is on record as “converted to Form A”. For the same compound, the “Solid form after slurry turnover (XRPD)” value in series [2] (setting [5]) was “converted to Form A”.
For `Cc1noc(C)c1-c1cnc2c(-c3ccc(C(=O)O)cc3)cn(C(C)(c3ccccn3)c3ccccn3)c2c1` [Form A, 4-(1-(1,1-di(pyridin-2-yl)ethyl)-6-(3,5-dimethylisoxazol-4-yl)-1H-pyrrolo[3,2-b]pyridin-3-yl)benzoic acid], in series [4], the Water uptake turned out to be 0.5% and the “Form change after DVS test according to XRPD” value was “No form change”. Besides, the Hygroscopicity result in series [4] (judged from DVS water uptake up to 80% RH at 25° C.) is “slightly hygroscopic”. For the same compound, the “Relative stability of Form A versus Form C” value in series [1] (based on the Burger-Ramberger Rules, before melting) is given as “monotropically more stable than Form C”. Further, the “Stability relationship between Form A and Form C” value in series [2] (from slurry turnover at RT and 50° C. and DSC, monotropic) is given as “more stable”.
Regarding `Cc1noc(C)c1-c1cnc2c(-c3ccc(C(=O)O)cc3)cn(C(C)(c3ccccn3)c3ccccn3)c2c1` [Form D, 4-(1-(1,1-di(pyridin-2-yl)ethyl)-6-(3,5-dimethylisoxazol-4-yl)-1H-pyrrolo[3,2-b]pyridin-3-yl)benzoic acid], the “Solid form after heating (XRPD)” value in series [1] (after heating to 145° C. and cooling to ambient conditions) is reported as “converted to Form C”.
